Measured values published in US20220267854A1, “EGFR AND ROS1 KINASE IN CANCER” (CELL SIGNALING TECHNOLOGY, INC., priority 2012, published 2022).

Tests used:
[1] = tested on: BaF3 cells expressing FIG-ROS1(L); assay: Cleaved caspase-3 flow cytometry (apoptosis), BaF3 FIG-ROS1(L); type: cell-based; settings: FIG. 7
Source text: (§1) The mechanism of death of the BaF3 and Karpas 299 cells was next assessed by measuring the percentage of cleaved-caspase 3 positive cells by flow cytometry assay using cleaved caspase-3 as a marker for apoptosis.

[2] = tested on: STAT3, AKT, ERK, Shp2 in FIG-ROS1(L) expressing BaF3 cells; assay: Western blotting, downstream signaling molecules in FIG-ROS1(L) expressing BaF3 cells; type: cell-based
Source text: (§2) All antibodies were from Cell Signaling Technology, Inc. (Danvers, Mass.)
(§3) Since ROS1, ALK, LTK, InsR, and IGFIR belong to the same family of tyrosine kinases, they may share similar structure in the kinase domain.

Karpas 299 cells = assay: Cleaved caspase-3 flow cytometry (apoptosis), Karpas 299; type: cell-based; settings: FIG. 7
Source text: as §1

FIG-ROS1(L) = FIG-ROS1(L) (Homo sapiens, UniProt P08922); assay: Western blotting, phosphorylation of FIG-ROS1(L) in BaF3 cells; type: cell-based
Source text: as §2, §3

[3] = tested on: STAT3, AKT, ERK, Shp2 in BaF3 cells transduced with the FLT-3ITD retrovirus; type: cell-based; settings: FLT-3ITD BaF3
Source text: as §2, §3

[4] = tested on: Karpas 299 cells (express NPM-ALK); settings: FIG. 6, 0-1000 nM, 72 hours
Protocol: (§4) BaF3 and Karpas 299 cells were obtained from DSMZ (Deutsche Sammlung von Mikroorganismen und Zellkulturen GmbH, Germany). BaF3 cells, which need interleukin-3 to survive, were maintained at 37° C. in RPMI-1640 medium (Invitrogen) with 10% fetal bovine serum (FBS) (Sigma) and 1.0 ng/ml murine IL-3 (R&D Systems). Karpas 299 cells (a lymphoma cell line) were grown in RPMI-1640 with 10% FBS.
(§5) BaF3 cells were transduced with retrovirus encoding FIG-ROS1(S), FIG-ROS1(L), or FLT-31TD (the Internal tandem duplication mutation in FLT3 causes AML leukemia), and selected for IL3 independent growth. Karpas 299 cells, which express NPM-ALK, was used as a positive control. Retroviruses were generated as previously described (see PCT Publication No. WO 2010/093928, incorporated by reference).
(§6) A MTS assay was performed using the CellTiter 96 Aqueous One Solution Reagent (Promega, Catalog No G3582). […] After 72 hours, 20 μl of the CellTiter 96 Aqueous One Solution Reagent was added into each well of a 96 well assay plate (flat bottom), and then 100 μl of cells grown with or without treatment. Media-only wells were used as controls. The 96 well plate was incubated for 1-4 hours at 37° C., and then viable cells were counted by reading the absorbance at 490 nm using a 96 well plate reader.

[5] = tested on: BaF3 cells transduced with FLT3/ITD
Protocol: as §4, §5, §6

FIG-ROS1(S) = target: T1, FIG-ROS1(S) (Homo sapiens, UniProt P08922); assay: Western blotting, phosphorylation of FIG-ROS1(S) in BaF3 cells; type: cell-based
T1 construct: expressed in transfected cells; host or cells: BaF3 cells (retroviral transduction, selected for IL3-independent growth)
Source text: as §2, §3

[6] = tested on: BaF3 cells expressing FIG-ROS1(L); assay: MTS cell growth assay, BaF3 expressing FIG-ROS1(L); type: cell-based
Protocol: as §4, §5, §6

[7] = tested on: STAT3, AKT, ERK, Shp2 in FIG-ROS1(S) expressing BaF3 cells; assay: Western blotting, downstream signaling molecules in FIG-ROS1(S) expressing BaF3 cells; type: cell-based
Source text: as §2, §3

[8] = tested on: BaF3 cells expressing FIG-ROS1(S); assay: MTS cell growth assay, BaF3 expressing FIG-ROS1(S); type: cell-based
Protocol: as §4, §5, §6

[9] = tested on: BaF3 cells expressing myc-tagged neomycin (Neo-Myc); assay: MTS cell growth assay, BaF3 expressing myc-tagged neomycin; type: cell-based; settings: FIGS. 9A/9B; 0-1.0 uM; negative control BaF3 neo-myc
Protocol: as §4, §6

[10] = tested on: BaF3 cells expressing FIG-ROS1(S); assay: Cleaved caspase-3 flow cytometry (apoptosis), BaF3 FIG-ROS1(S); type: cell-based; settings: FIG. 7
Source text: as §1

[11] = FIG. 8, 0, 10, 50, or 100 nM for three hours
[12] = FIGS. 9A/9B, 0-1.0 uM, same concentration of each
[13] = FIG. 10, 0, 0.1, 0.3, or 1.0 uM for three hours

COc1cc(N2CCC(N3CCN(C)CC3)CC2)ccc1Nc1ncc(Cl)c(Nc2ccccc2S(=O)(=O)C(C)C)n1 [TAE-684]
mechanism of death, cleaved-caspase 3 positive cells [1]: die by apoptosis
phosphorylation of STAT3, AKT, and ERK, and Shp2 [2, 11]: inhibited
mechanism of death, cleaved-caspase 3 positive cells (Karpas 299 cells): did not die by apoptosis
phosphorylation of FIG-ROS1(L) (FIG-ROS1(L); [11]): inhibited
phosphorylation of STAT3, AKT, and ERK, and Shp2 [3, 11]: not affected
cellular growth response [4]: stopped growing
cellular growth response ([5]; FIG. 6, 0-1000 nM, 72 hours, BaF3 FLT3/ITD): not susceptible
cellular growth response, compared with FIG-ROS1 BaF3 and Karpas 299 cells ([5]; FIGS. 9A/9B, 0-1.0 uM, negative control BaF3 FLT3-ITD): less sensitive
phosphorylation of FIG-ROS1(S) (FIG-ROS1(S); [11]): inhibited
cellular growth response ([6]; FIG. 6, 0-1000 nM, 72 hours): stopped growing
cellular growth response, TAE-684 compared with crizotinib [6, 12]: more sensitive to TAE-684 than to crizotinib
phosphorylation of STAT3, AKT, and ERK, and Shp2 [7, 11]: inhibited
cellular growth response ([8]; FIG. 6, 0-1000 nM, 72 hours): stopped growing
cellular growth response, TAE-684 compared with crizotinib [8, 12]: more sensitive to TAE-684 than to crizotinib
cellular growth response, compared with FIG-ROS1 BaF3 and Karpas 299 cells [9]: less sensitive
mechanism of death, cleaved-caspase 3 positive cells [10]: die by apoptosis

C[C@@H](Oc1cc(-c2cnn(C3CCNCC3)c2)cnc1N)c1c(Cl)ccc(F)c1Cl [crizotinib]
phosphorylation of STAT3 and ERK [2, 13]: inhibited
phosphorylation of FIG-ROS1(L) (FIG-ROS1(L); [13]): inhibited
phosphorylation of STAT3 and ERK [3, 13]: not affected
phosphorylation of FIG-ROS1(S) (FIG-ROS1(S); [13]): inhibited
phosphorylation of STAT3 and ERK [7, 13]: inhibited
